According to patent US12473303B2, “4-[[(7-aminopyrazolo[1,5-a]pyrimidin-5-yl)amino methyl]piperidin-3-ol compounds and their therapeutic use” (CARRICK THERAPEUTICS LIMITED, priority 2019, dated 2025):
Read-outs that look alike come from different tables or passages of the source.

How the values were obtained:
A673 cells = test: Cellular potency in A673 cells; format: cell-based; settings: for IC50: Homo sapiens, A673, Table 3, A673 cells; for Ratio of Biochemical Potency: Cellular Potency: Table 3, ratio >0.9 is an indicator of Cyclin K degradation
Human CDK12 wt/CycK = Human CDK12 wt/CycK (Homo sapiens (Human), UniProt Q9NYV4); test: Radiometric protein kinase assay (33PanQinase Activity Assay), CDK12; format: biochemical; settings: for CDK7/CDK12: ratio greater than 1 indicated selectivity for CDK12
Sequence of Human CDK12 wt/CycK (Q9NYV4 whole entry): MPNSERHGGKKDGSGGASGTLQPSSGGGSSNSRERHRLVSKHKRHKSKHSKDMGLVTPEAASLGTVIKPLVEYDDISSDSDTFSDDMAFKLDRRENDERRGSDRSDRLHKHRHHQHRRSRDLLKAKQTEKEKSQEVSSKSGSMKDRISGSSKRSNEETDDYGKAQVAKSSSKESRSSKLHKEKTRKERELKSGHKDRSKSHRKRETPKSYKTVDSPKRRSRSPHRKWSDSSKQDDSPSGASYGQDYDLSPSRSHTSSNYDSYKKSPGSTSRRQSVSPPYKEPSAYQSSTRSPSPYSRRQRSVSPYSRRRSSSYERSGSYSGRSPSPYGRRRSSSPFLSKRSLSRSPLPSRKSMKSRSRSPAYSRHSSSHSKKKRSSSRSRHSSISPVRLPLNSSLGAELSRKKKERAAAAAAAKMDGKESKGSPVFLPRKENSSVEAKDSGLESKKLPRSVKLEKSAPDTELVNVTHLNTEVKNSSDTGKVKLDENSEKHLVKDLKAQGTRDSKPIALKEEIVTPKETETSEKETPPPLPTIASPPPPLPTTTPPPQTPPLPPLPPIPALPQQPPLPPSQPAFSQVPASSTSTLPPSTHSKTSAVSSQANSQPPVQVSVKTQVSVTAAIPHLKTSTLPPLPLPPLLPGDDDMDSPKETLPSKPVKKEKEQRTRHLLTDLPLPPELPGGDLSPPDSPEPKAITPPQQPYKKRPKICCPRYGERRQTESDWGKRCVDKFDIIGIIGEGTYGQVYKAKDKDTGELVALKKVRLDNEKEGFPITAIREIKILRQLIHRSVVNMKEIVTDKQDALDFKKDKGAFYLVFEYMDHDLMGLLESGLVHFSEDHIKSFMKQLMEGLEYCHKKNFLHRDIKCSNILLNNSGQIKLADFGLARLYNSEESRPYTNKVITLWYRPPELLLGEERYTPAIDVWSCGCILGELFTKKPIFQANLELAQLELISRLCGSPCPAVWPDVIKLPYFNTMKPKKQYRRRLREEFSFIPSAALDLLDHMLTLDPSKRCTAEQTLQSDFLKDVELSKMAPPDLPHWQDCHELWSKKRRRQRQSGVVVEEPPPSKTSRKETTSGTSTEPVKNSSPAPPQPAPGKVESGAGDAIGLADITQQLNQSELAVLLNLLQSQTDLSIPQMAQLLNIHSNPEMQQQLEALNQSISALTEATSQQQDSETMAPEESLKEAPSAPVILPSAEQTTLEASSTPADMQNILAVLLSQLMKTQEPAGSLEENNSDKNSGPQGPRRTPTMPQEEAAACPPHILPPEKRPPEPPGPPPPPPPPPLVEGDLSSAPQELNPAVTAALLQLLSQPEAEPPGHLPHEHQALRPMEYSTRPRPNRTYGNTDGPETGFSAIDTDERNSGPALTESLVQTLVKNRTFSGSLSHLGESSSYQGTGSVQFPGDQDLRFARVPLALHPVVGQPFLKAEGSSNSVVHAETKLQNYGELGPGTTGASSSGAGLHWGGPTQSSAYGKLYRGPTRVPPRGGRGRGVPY
Sequence of Human CDK12 wt/CycK (O75909 whole entry partner): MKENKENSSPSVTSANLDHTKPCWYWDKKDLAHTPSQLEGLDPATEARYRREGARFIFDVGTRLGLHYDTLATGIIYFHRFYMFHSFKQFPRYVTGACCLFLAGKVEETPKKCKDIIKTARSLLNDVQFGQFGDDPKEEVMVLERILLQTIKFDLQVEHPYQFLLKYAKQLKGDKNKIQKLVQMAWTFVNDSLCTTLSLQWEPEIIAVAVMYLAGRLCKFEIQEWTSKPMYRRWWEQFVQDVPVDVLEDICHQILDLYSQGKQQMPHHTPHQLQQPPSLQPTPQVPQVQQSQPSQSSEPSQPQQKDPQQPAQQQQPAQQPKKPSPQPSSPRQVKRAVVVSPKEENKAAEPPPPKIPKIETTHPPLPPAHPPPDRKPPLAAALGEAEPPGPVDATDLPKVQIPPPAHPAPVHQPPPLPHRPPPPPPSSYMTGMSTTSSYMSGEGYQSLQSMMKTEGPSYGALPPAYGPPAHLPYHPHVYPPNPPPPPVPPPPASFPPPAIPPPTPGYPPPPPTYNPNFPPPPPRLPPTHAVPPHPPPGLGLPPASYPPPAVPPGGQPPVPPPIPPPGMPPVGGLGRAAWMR
Experimental: (§1) A radiometric protein kinase assay (^33PanQinase® Activity Assay) was used for measuring the kinase activity of the two protein kinases (CDK12/CDK7). All kinase assays were performed in 96-well FlashPlates™ from PerkinElmer (Boston, MA, USA) in a 50 μL reaction volume.
(§2) The reaction cocktail was pipetted in four steps in the following order: • 20 μL of assay buffer (standard buffer) • 5 μL of ATP solution (in H2O) • 5 μL of test compound (in 10% DMSO) • 10 μL of substrate/10 μL of enzyme solution (premixed)
(§3) The reaction mixture was incubated at 30° C. for 60 min and then stopped by the addition of 2% (v/v) H3PO4. Plates were aspirated and washed two times with 200 μL 0.9% (w/v) NaCl. Incorporation of ^33Pi was determined with a microplate scintillation count (Microbeta, Wallac).
(§4) The fitting method used was a least-squares fit.

Human CDK7/CycH/MAT1 = Human CDK7/CycH/MAT1 (Homo sapiens (Human), UniProt P50613); test: Radiometric protein kinase assay (33PanQinase Activity Assay), CDK7; format: biochemical; settings: Table 1; ATP 3 μM
Sequence of Human CDK7/CycH/MAT1 (P50613 whole entry): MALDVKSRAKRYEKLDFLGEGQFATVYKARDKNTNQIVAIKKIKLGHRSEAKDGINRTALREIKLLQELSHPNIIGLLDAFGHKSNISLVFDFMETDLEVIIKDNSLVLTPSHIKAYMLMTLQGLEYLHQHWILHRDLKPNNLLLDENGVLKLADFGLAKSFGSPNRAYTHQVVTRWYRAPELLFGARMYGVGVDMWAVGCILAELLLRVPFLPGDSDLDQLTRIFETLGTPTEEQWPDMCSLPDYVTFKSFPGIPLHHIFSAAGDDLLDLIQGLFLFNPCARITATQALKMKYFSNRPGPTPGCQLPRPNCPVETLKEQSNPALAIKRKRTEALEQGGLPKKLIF
Sequence of Human CDK7/CycH/MAT1 (P51946 whole entry partner): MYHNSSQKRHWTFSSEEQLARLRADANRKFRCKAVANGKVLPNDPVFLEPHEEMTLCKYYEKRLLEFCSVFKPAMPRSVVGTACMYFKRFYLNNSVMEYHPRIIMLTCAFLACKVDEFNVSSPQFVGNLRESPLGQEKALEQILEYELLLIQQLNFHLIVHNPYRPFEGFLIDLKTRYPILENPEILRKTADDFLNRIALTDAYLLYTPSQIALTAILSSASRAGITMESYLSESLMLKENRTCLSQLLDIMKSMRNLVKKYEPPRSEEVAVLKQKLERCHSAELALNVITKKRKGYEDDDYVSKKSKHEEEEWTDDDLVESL
Sequence of Human CDK7/CycH/MAT1 (P51948 whole entry partner): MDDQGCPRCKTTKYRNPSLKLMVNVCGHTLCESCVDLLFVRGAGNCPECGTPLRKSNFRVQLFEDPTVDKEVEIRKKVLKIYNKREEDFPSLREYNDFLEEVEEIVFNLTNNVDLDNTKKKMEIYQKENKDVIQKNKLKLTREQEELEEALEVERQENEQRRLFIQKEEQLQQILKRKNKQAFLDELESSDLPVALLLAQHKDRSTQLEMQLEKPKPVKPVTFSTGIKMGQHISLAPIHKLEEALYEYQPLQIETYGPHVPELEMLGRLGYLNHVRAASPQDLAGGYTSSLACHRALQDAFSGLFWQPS
Experimental: as §1, §2, §3, §4

[1] = Table 1, ATP 0.3 μM, read-out: CDK12 IC50
[2] = Table 3, CDK12 kinase activity, read-out: Biochemical Potency IC50

SMILES	IC50 (A673 cells) [nM]	IC50 (Human CDK12 wt/CycK; [1]) [nM]	CDK7/CDK12 (Human CDK12 wt/CycK; Table 1)	IC50 (Human CDK12 wt/CycK; [2]) [nM]	IC50 (Human CDK7/CycH/MAT1) [nM]	Ratio of Biochemical Potency: Cellular Potency (A673 cells)
O[C@H]1CNCC[C@@H]1CNc1cc(NCc2cn3ccc(C(F)(F)F)cc3n2)n2ncc(C3CC3)c2n1 [H-APPAMP-035, (3R,4R)-4-(((3-cyclopropyl-7-(((7-(trifluoromethyl)imidazo[1,2-a]pyridin-2-yl)methyl)amino)pyrazolo[1,5-a]pyrimidin-5-yl)amino)methyl)piperidin-3-ol]	17.3	44	29.3	44	1290	2.5
O[C@H]1CNCC[C@@H]1CNc1cc(NCc2cn3nc(C4CC4)ccc3n2)n2ncc(C3CC3)c2n1 [H-APPAMP-028, (3R,4R)-4-(((3-cyclopropyl-7-(((6-cyclopropylimidazo[1,2-b]pyridazin-2-yl)methyl)amino)pyrazolo[1,5-a]pyrimidin-5-yl)amino)methyl)piperidin-3-ol]	13.1	37	1.8	37	68	2.8
CC(C)c1cnn2c(NCc3cn4cccc(C5CC5)c4n3)cc(NC[C@H]3CCNC[C@@H]3O)nc12 [H-APPAMP-013, (3R,4R)-4-(((7-(((8-cyclopropylimidazo[1,2-a]pyridin-2-yl)methyl)amino)-3-isopropylpyrazolo[1,5-a]pyrimidin-5-yl)amino)methyl)piperidin-3-ol]	12.2	70	3.2	70	226	5.7
CC(C)Oc1cccc2nc(CNc3cc(NC[C@H]4CCNC[C@@H]4O)nc4c(C5CC5)cnn34)cn12 [H-APPAMP-041, (3R,4R)-4-(((3-cyclopropyl-7-(((5-isopropoxyimidazo[1,2-a]pyridin-2-yl)methyl)amino)pyrazolo[1,5-a]pyrimidin-5-yl)amino)methyl)piperidin-3-ol]	9.8	46	14.1	46	650	4.7
Cc1csc2nc(CNc3cc(NC[C@H]4CCNC[C@@H]4O)nc4c(C(C)C)cnn34)cn12 [H-APPAMP-007, (3R,4R)-4-[[[3-isopropyl-7-[(3-methylimidazo[2,1-b]thiazol-6-yl)methylamino]pyrazolo[1,5-a]pyrimidin-5-yl]amino]methyl]piperidin-3-ol]	27	20	7.90	20	158	0.7
CC(C)c1cnn2c(NCc3ccc4ccccc4n3)cc(NC[C@H]3CCNC[C@@H]3O)nc12 [H-APPAMP-014, (3R,4R)-4-(((3-isopropyl-7-((quinolin-2-ylmethyl)amino)pyrazolo[1,5-a]pyrimidin-5-yl)amino)methyl)piperidin-3-ol]	7.3	75	0.3	75	19	10
Cc1cc(C(F)(F)F)cc2nc(CNc3cc(NC[C@H]4CCNC[C@@H]4O)nc4c(C5CC5)cnn34)cn12 [H-APPAMP-039, (3R,4R)-4-(((3-cyclopropyl-7-(((5-methyl-7-(trifluoromethyl)imidazo[1,2-a]pyridin-2-yl)methyl)amino)pyrazolo[1,5-a]pyrimidin-5-yl)amino)methyl)piperidin-3-ol]	4	48	38.1	48	1830	12
O[C@H]1CNCC[C@@H]1CNc1cc(NCc2cn3c(C(F)(F)F)cccc3n2)n2ncc(C3CC3)c2n1 [H-APPAMP-037, (3R,4R)-4-(((3-cyclopropyl-7-(((5-(trifluoromethyl)imidazo[1,2-a]pyridin-2-yl)methyl)amino)pyrazolo[1,5-a]pyrimidin-5-yl)amino)methyl)piperidin-3-ol]	18.1	208	3.1	208	649	11
CC(C)c1cnn2c(NC(C)c3cn4ccccc4n3)cc(NC[C@H]3CCNC[C@@H]3O)nc12 (stereo partly drawn) [H-APPAMP-019, (3R,4R)-4-(((7-((1-(imidazo[1,2-a]pyridin-2-yl)ethyl)amino)-3-isopropylpyrazolo[1,5-a]pyrimidin-5-yl)amino)methyl)piperidin-3-ol]	76.9	522	1.2	522	640	6.8
O[C@H]1CNCC[C@@H]1CNc1cc(NCc2cn3c(C4CC4)cccc3n2)n2ncc(C3CC3)c2n1 [H-APPAMP-030, (3R,4R)-4-(((3-cyclopropyl-7-(((5-cyclopropylimidazo[1,2-a]pyridin-2-yl)methyl)amino)pyrazolo[1,5-a]pyrimidin-5-yl)amino)methyl)piperidin-3-ol]	8.7	75	3.7	75	274	8.6

Further lines, with some results ahead:

IC50 (A673 cells) [nM]	IC50 (Human CDK12 wt/CycK; [1]) [nM]	CDK7/CDK12 (Human CDK12 wt/CycK; Table 1)	IC50 (Human CDK12 wt/CycK; [2]) [nM]	IC50 (Human CDK7/CycH/MAT1) [nM]	SMILES	Ratio of Biochemical Potency: Cellular Potency (A673 cells)
14.8	96	1.9	96	179	CC(C)c1cnn2c(NCc3cnc4ccccn34)cc(NC[C@H]3CCNC[C@@H]3O)nc12 [H-APPAMP-016, (3R,4R)-4-(((7-((imidazo[1,2-a]pyridin-3-ylmethyl)amino)-3-isopropylpyrazolo[1,5-a]pyrimidin-5-yl)amino)methyl)piperidin-3-ol]	6.5
4.3	40	6.0	40	238	Cc1cccc2nc(CNc3cc(NC[C@H]4CCNC[C@@H]4O)nc4c(C(C)C)cnn34)cn12 [H-APPAMP-010, (3R,4R)-4-(((3-isopropyl-7-(((5-methylimidazo[1,2-a]pyridin-2-yl)methyl)amino)pyrazolo[1,5-a]pyrimidin-5-yl)amino)methyl)piperidin-3-ol]	9.3
2.7	167	0.2	167	28	CC(C)c1cnn2c(NCc3cnc4ccccc4c3)cc(NC[C@H]3CCNC[C@@H]3O)nc12 [H-APPAMP-021, (3R,4R)-4-(((3-isopropyl-7-((quinolin-3-ylmethyl)amino)pyrazolo[1,5-a]pyrimidin-5-yl)amino)methyl)piperidin-3-ol]	62
123	38	11.5	38	436	Cc1cccc2ncc(CNc3cc(NC[C@H]4CCNC[C@@H]4O)nc4c(C(C)C)cnn34)n12 [H-APPAMP-001, (3R,4R)-4-(((3-isopropyl-7-(((5-methylimidazo[1,2-a]pyridin-3-yl)methyl)amino)pyrazolo[1,5-a]pyrimidin-5-yl)amino)methyl)piperidin-3-ol]	0.3
6.3	33	5.1	33	168	CC(C)c1cnn2c(NCc3cn4cc(F)ccc4n3)cc(NC[C@H]3CCNC[C@@H]3O)nc12 [H-APPAMP-011, (3R,4R)-4-(((7-(((6-fluoroimidazo[1,2-a]pyridin-2-yl)methyl)amino)-3-isopropylpyrazolo[1,5-a]pyrimidin-5-yl)amino)methyl)piperidin-3-ol]	5.2
47	65	5.28	65	343	CC(C)c1cnn2c(NCc3nc4ccccc4[nH]3)cc(NC[C@H]3CCNC[C@@H]3O)nc12 [H-APPAMP-005, (3R,4R)-4-(((7-(((1H-benzo[d]imidazol-2-yl)methyl)amino)-3-isopropylpyrazolo[1,5-a]pyrimidin-5-yl)amino)methyl)piperidin-3-ol]	1.4
52	26.9	4.72	27	127	CC(C)c1cnn2c(NCc3ccc4c(c3)ncn4C)cc(NC[C@H]3CCNC[C@@H]3O)nc12 [H-APPAMP-006, (3R,4R)-4-(((3-isopropyl-7-(((1-methyl-1H-benzo[d]imidazol-5-yl)methyl)amino)pyrazolo[1,5-a]pyrimidin-5-yl)amino)methyl)piperidin-3-ol]	0.5
8	50.2	8.19	50	411	CC(C)c1cnn2c(NCc3cn4ccccc4n3)cc(NC[C@H]3CCNC[C@@H]3O)nc12 [H-APPAMP-003, (3R,4R)-4-(((7-((imidazo[1,2-a]pyridin-2-ylmethyl)amino)-3-isopropylpyrazolo[1,5-a]pyrimidin-5-yl)amino)methyl)piperidin-3-ol]	6.2
